In this assay the test system is Mycobacterium tuberculosis. Description: microbe, parasite or virus in culture. As to conditions: variant bovis BCG, 504 h.
`Nc1ncnc2c1c(-c1ccccc1)cn2[C@@H]1O[C@H](CO)[C@@H](O)[C@H]1O` showed an IC50 of 1340 nM. As for `COc1ccc(-c2cn([C@@H]3O[C@H](CO)[C@@H](O)[C@H]3O)c3ncnc(N)c23)cc1`, it took 2080 nM to reach half-maximal inhibition (IC50). The figure for `CSc1ccc(-c2cn([C@@H]3O[C@H](CO)[C@@H](O)[C@H]3O)c3ncnc(N)c23)cc1` is 360 nM; for `Nc1ncnc2c1c(-c1cccc3ccccc13)cn2[C@@H]1O[C@H](CO)[C@@H](O)[C@H]1O` it is 1870 nM. The compound `Nc1ncnc2c1c(-c1ccc3ccccc3c1)cn2[C@@H]1O[C@H](CO)[C@@H](O)[C@H]1O` gave an IC50 of 390 nM. On to `Nc1ncnc2c1c(-c1ccoc1)cn2[C@@H]1O[C@H](CO)[C@@H](O)[C@H]1O`, for which 8310 nM corresponded to half-maximal inhibition (IC50). The compound `Nc1ncnc2c1c(-c1ccsc1)cn2[C@@H]1O[C@H](CO)[C@@H](O)[C@H]1O` returned an IC50 of 3930 nM. Compound `Nc1ncnc2c1c(-c1cc3ccccc3o1)cn2[C@@H]1O[C@H](CO)[C@@H](O)[C@H]1O` registered an IC50 of 2270 nM. In turn, `Nc1ncnc2c1c(-c1ccc[nH]1)cn2[C@@H]1O[C@H](CO)[C@@H](O)[C@H]1O` registered an IC50 of 7270 nM. The figure for `Nc1ncnc2c1c(-c1cc[nH]c1)cn2[C@@H]1O[C@H](CO)[C@@H](O)[C@H]1O` is 1120 nM. Then `Nc1ncnc2c1c(-c1cn[nH]c1)cn2[C@@H]1O[C@H](CO)[C@@H](O)[C@H]1O`, with 3080 nM; and `Nc1ncnc2c1c(-c1cc[nH]n1)cn2[C@@H]1O[C@H](CO)[C@@H](O)[C@H]1O`, with 48000 nM. In turn, `C#Cc1cn([C@@H]2O[C@H](CO)[C@@H](O)[C@H]2O)c2ncnc(N)c12` had an IC50 of 130 nM.

Turning to `Nc1ncnc2c1c(-c1c[nH]nn1)cn2[C@@H]1O[C@H](CO)[C@@H](O)[C@H]1O`, 69000 nM corresponded to half-maximal inhibition (IC50). Then `Nc1ncnc2c1c(-c1nccs1)cn2[C@@H]1O[C@H](CO)[C@@H](O)[C@H]1O`, with 2510 nM. Compound `Nc1ncnc2c1c(-c1c[nH]cn1)cn2[C@@H]1O[C@H](CO)[C@@H](O)[C@H]1O` gave an IC50 above 100000 nM. The figure for `Nc1ncnc2c1c(-c1ncc[nH]1)cn2[C@@H]1O[C@H](CO)[C@@H](O)[C@H]1O` is above 100000 nM; for `Cc1ccc(-c2cn([C@@H]3O[C@H](CO)[C@@H](O)[C@H]3O)c3ncnc(N)c23)cc1C` it is 1130 nM; for `CC(C)c1cccc(-c2cn([C@@H]3O[C@H](CO)[C@@H](O)[C@H]3O)c3ncnc(N)c23)c1` it is 6750 nM. The figure for `CC(C)c1ccc(-c2cn([C@@H]3O[C@H](CO)[C@@H](O)[C@H]3O)c3ncnc(N)c23)cc1` is 5290 nM. The figure for `CC(C)(C)c1ccc(-c2cn([C@@H]3O[C@H](CO)[C@@H](O)[C@H]3O)c3ncnc(N)c23)cc1` is 4540 nM. Take `Nc1ncnc2c1c(-c1ccc(C(F)(F)F)cc1)cn2[C@@H]1O[C@H](CO)[C@@H](O)[C@H]1O`: the IC50 was 1160 nM. In the case of `CC(C)Oc1ccc(-c2cn([C@@H]3O[C@H](CO)[C@@H](O)[C@H]3O)c3ncnc(N)c23)cc1`, half-maximal inhibition (IC50) required 3070 nM.

With `Nc1ncnc2c1c(-c1ccc3c(c1)OCO3)cn2[C@@H]1O[C@H](CO)[C@@H](O)[C@H]1O`, the IC50 amounted to 1380 nM. The figure for `COc1cc(-c2cn([C@@H]3O[C@H](CO)[C@@H](O)[C@H]3O)c3ncnc(N)c23)cc(OC)c1OC` is 7050 nM; for `Nc1ncnc2c1c(-c1ccc3c4c(cccc14)CC3)cn2[C@@H]1O[C@H](CO)[C@@H](O)[C@H]1O` it is 1740 nM; for `Nc1ncnc2c1c(-c1cc3ccccc3c3ccccc13)cn2[C@@H]1O[C@H](CO)[C@@H](O)[C@H]1O` it is 1900 nM.

`Nc1ncnc2c1c(-c1cccc3c1oc1ccccc13)cn2[C@@H]1O[C@H](CO)[C@@H](O)[C@H]1O` gave an IC50 of 190 nM. The figure for `Nc1ncnc2c1c(-c1cccc3c1Oc1ccccc1S3)cn2[C@@H]1O[C@H](CO)[C@@H](O)[C@H]1O` is 4530 nM; for `Nc1ncnc2c1c(-c1cccc3c1Sc1ccccc1S3)cn2[C@@H]1O[C@H](CO)[C@@H](O)[C@H]1O` it is 44300 nM; for `Nc1ncnc2c1c(/C=C/c1ccccc1)cn2[C@@H]1O[C@H](CO)[C@@H](O)[C@H]1O` it is 1300 nM. The figure for `Nc1ncnc2c1c(-c1ccc(-c3ccccc3)cc1)cn2[C@@H]1O[C@H](CO)[C@@H](O)[C@H]1O` is 1680 nM; for `Nc1ncnc2c1c(-c1ccc(-c3ccc4ccccc4c3)cc1)cn2[C@@H]1O[C@H](CO)[C@@H](O)[C@H]1O` it is 74400 nM. Regarding `Nc1ncnc2c1c(-c1ccc(COc3cccc4ccccc34)cc1)cn2[C@@H]1O[C@H](CO)[C@@H](O)[C@H]1O`, it took 6390 nM to reach half-maximal inhibition (IC50).

The IC50 is the concentration that inhibits the measured activity by half. Higher therefore signals weaker potency.

For the origin of these results see ChEMBL document CHEMBL3352218, “Structural basis for inhibition of mycobacterial and human adenosine kinase by 7-substituted 7-(Het)aryl-7-deazaadenine ribonucleosides” (J Med Chem, 2014).
